The test system of one assay is SNL model. Put plainly: Antiallodynic activity on Chung model (SNL, spinal nerve ligation; von Frey). The following applies: rat, oral, von Frey, 1 h. In kind it is in vivo, Sprague-Dawley rats. The procedure: Male. Sprague-Dawley rats (200-220 g, Orient Bio, Korea) were habituated for 1 week before the experiment and allowed free access to food and water throughout the experimentation. Room temperature and humidity were maintained at 24±2° C. and 50±10%, respectively. Neuropathic surgery (SNL, Spinal nerve ligation) model was clone as described in Kim and Chung (1992). Briefly, animal under gaseous anesthesia with isoflurane a 4:4 flow ratio of NO2. The left lumber spinal nerve L5 and L6 were isolated and tightly ligated with 4-0 silk thread. The wound was treated with a gentamicin antibiotics solution (4 mg/kg, 4 ul/g, bw), and the wound muscle was closed with cat cut chrom 4/0 thread and skin was closed dafilon 4/0 tread. Sham controls were prepared in the same manner as the spinal nerves were exposed, but no ligated L5 and L6 nerves. But, vehicle controls were identical to SNL model, except for administration of vehicles.
Tactile sensitivity (Mechanical allodynia) was evaluated using von Frey monofilaments before and after treatment and animals were used withdrawal threshold value was less than 4 g. One week after surgery, SNL-operated animals (n=4˜6), sham-operated animals (n=4˜10) and vehicle-operated animals (n=4˜13) were tested for tactile sensitivity with von Frey monofilaments 3 trials in each animal. All Animals were placed in a stainless steel mashed chamber and habituated for 30 min in the test box. The tactile sensitivity for ipsilateral hind paw was measured using the up-and-down method (Dixon, 1980) with seven von Frey monofilaments (0.4, 1, 2, 4, 6, 8, and 15 g) to 3 trials. Tactile sensitivity test was followed by Dixon's method (Dixon, 1980). The 50% paw withdrawal threshold for each paw was calculated using the following formula: [Xth] log=[vFr] log+ky where [vFr] is the force of the last von Frey used, k=0.2249 which is the average interval (in log units) between the von Frey monofilaments, and y is a value that depends upon the pattern of withdrawal responses (Dixon, 1980).
All animals were fasted 18 h before the administration of the compounds. The antiallodynic effect of the compounds were evaluated at the various dose (n=5˜6), orally administrated in a volume of 5 ul/g, bw in a vehicle of 30% (v/v) PEG 400 or 20% (v/v) Tween 80 or Saline. […]
The relative values compared to the sham group (% control) were calculated and shown in Table 5, which show an antiallodynic effect of the test compounds on SNL model in rats.

In assay [1] the test system is hot plate withdrawal latency. Put plainly: Hot-plate test. The following applies: 200 mg/kg, mouse, oral. In kind it is in vivo, ICR mice. The procedure:
To examine the pain relief effect of the sulfamate derivative compounds, a hot-plate test was conducted in general pain animal model referring to Current Protocols in Neuroscience; Behavioral Neuroscience Unit 8.9.
ICR mice (male, 30-35 g: Orient Bio, Korea) were habituated before test in test room for 1 hour. Animals were fasted 2 hr before administration of compounds. […] All compounds were dissolved in a vehicle of 30% (v/v) PEG 400 or 20% (v/v) Tween 80. The control group was treated the vehicle without compounds.
[…] (Hu, X. et al, 2008), and then, measured as the withdrawal latency (cut-off time: 30 sec) time until the point when each mouse was taking off a paw from the plate, shaking, licking a paw or hind leg, or jumping from the plate.
For orientation: Thermal pain tests record how soon the animal reacts.

The values below come from patent publication US9834535B2, “Sulfamate derivative compounds for use in treating or alleviating pain” (Bio-Pharm Solutions Co., Ltd., priority 2013, dated 2017).

For orientation: ED50 means the dose that gives a 50% effect, or the effect in half of the subjects. Read a low ED50 as an effect at a small dose. On to `CC1(C)O[C@@H](COS(N)(=O)=O)[C@H](c2ccccc2Cl)O1` [Example 2, ((4S,5S)-5-(2-chlorophenyl)-2,2-dimethyl-1,3-dioxolan-4-yl)methyl sulfamate], for which it took a dose of 18.2 mg/kg to reach the 50% effect level in the assay with SNL model (ED50). The “Hot plate test: effect (%) at the concentration administered” value in assay [1] is reported as “^#200 (123.6%)”.
